The source made the active and inactive calls. The calls are words filed in the database; no cut-off is given here.
Key:
[1] = tested on: Hepatitis B virus; experiment: Antiviral activity against Hepatitis B virus in human HepAD38 cells assessed as inhibition of extracellular viral replication at 10 uM incubated for 2 days followed by 3 day incubation with fresh medium containing compound for 72 hrs by qRT-PCR analysis; type: functional
[2] = tested on: Hepatitis B virus; experiment: Antiviral activity against Hepatitis B virus in human HuH7 cells assessed as reduction in HBeAg secretion incubated for 2 days followed by 3 day incubation with fresh medium containing compound for 7 days by time-resolved fluoro-immunoassay; type: functional, organism-based; conditions: Huh-7
[3] = tested on: Hepatitis B virus; experiment: Antiviral activity against Hepatitis B virus in human HuH7 cells assessed as reduction in HBeAg secretion at 25 uM incubated for 2 days followed by 3 day incubation with fresh medium containing compound for 7 days by time-resolved fluoro-immunoassay; type: functional, organism-based; conditions: Huh-7
[4] = Cytotoxicity against human HepAD38 cells after 7 days by MTT assay; type: cell-based
[5] = Selectivity index, ratio of CC50 for human HepAD38 cells to EC50 for Hepatitis B virus; type: toxicity, cell-based; conditions: read-out: Ratio CC50/EC50
[6] = tested on: Hepatitis B virus; experiment: Antiviral activity against Hepatitis B virus in human HepAD38 cells assessed as inhibition of extracellular viral replication incubated for 2 days followed by 3 day incubation with fresh medium containing compound for 72 hrs by qRT-PCR analysis; type: functional, organism-based
[7] = tested on: Hepatitis B virus; experiment: Effect on transcription level in Hepatitis B virus assessed as pgRNA level in human HuH7 cells after 48 hrs by qRT-PCR analysis; type: functional, organism-based; conditions: Huh-7
[8] = tested on: Hepatitis B virus; experiment: Antiviral activity against Hepatitis B virus in human HuH7 cells assessed as inhibition of intracellular viral replication at 2.5 and 25 uM after 48 hrs by qRT-PCR analysis; type: functional, organism-based; conditions: Huh-7
[9] = tested on: Hepatitis B virus; experiment: Antiviral activity against Hepatitis B virus in human HuH7 cells assessed as reduction in HBsAg secretion at 25 uM incubated for 2 days followed by 3 day incubation with fresh medium containing compound for 7 days by time-resolved fluoro-immunoassay; type: functional, organism-based; conditions: Huh-7

O=c1[nH]c(SCCOc2ccc(Br)cc2)nc(Cn2nnc3ccccc32)c1I
inhibition at 10 µM [1]: 31%

N#Cc1ccc(CSc2nc(Cc3ccccc3)c(I)c(=O)[nH]2)cc1
inhibition at 10 µM [1]: 63%

O=c1[nH]c(SCc2ccc([N+](=O)[O-])cc2)nc(Cc2ccccc2)c1I
inhibition [1]: inactive

O=c1[nH]c(SCCOc2ccc([N+](=O)[O-])cc2)nc(Cc2ccccc2)c1I
inhibition at 10 µM [1]: 13%

COc1ccc(Cc2nc(SCCOc3ccc(Br)cc3)[nH]c(=O)c2I)cc1OC
inhibition [1]: inactive

O=c1[nH]c(SCCOc2ccc([N+](=O)[O-])cc2)nc(Cn2nnc3ccccc32)c1I
Activity [2]: Dose-dependent effect | Activity [3]: Active | CC50 at 168 h [4]: 52 µM | selectivity ratio [5]: 111 | EC50 [6]: 0.469 µM | Activity [7]: inactive | Activity [8]: Active | Activity [9]: Active | inhibition at 10 µM [1]: 74%

COc1ccc(Cc2nc(SC3CCCCCC3)[nH]c(=O)c2I)cc1OC
CC50 at 168 h [4]: 98 µM | selectivity ratio [5]: 2.4 | EC50 [6]: 40.8 µM | inhibition at 10 µM [1]: 31%

O=c1[nH]c(SCc2ccc([N+](=O)[O-])cc2)nc(Cn2nnc3ccccc32)c1I
inhibition at 10 µM [1]: 49%

O=c1[nH]c(SCc2ccc([N+](=O)[O-])cc2)nc(Cc2cc(F)cc(F)c2)c1I
inhibition at 10 µM [1]: 47%

O=c1[nH]c(SCc2ccc(C(F)(F)F)cc2)nc(Cn2nnc3ccccc32)c1I
inhibition [1]: inactive

COc1ccc(Cc2nc(SCCOc3ccc([N+](=O)[O-])cc3)[nH]c(=O)c2I)cc1OC
inhibition at 10 µM [1]: 6%

Cc1cc(C)cc(Cc2nc(SCc3ccc(C#N)cc3)[nH]c(=O)c2I)c1
inhibition at 10 µM [1]: 33%

COc1cccc(CSc2nc(Cc3ccc(OC)c(OC)c3)c(I)c(=O)[nH]2)c1
inhibition [1]: inactive

Cc1cc(C)cc(Cc2nc(SCCOc3ccc([N+](=O)[O-])cc3)[nH]c(=O)c2I)c1
inhibition at 10 µM [1]: 20%

COc1ccc(Cc2nc(SCc3cccc(Cl)c3)[nH]c(=O)c2I)cc1OC
CC50 at 168 h [4]: 119 µM | selectivity ratio [5]: 27.8 | EC50 [6]: 4.28 µM | inhibition at 10 µM [1]: 65%

COc1cc(CSc2nc(Cn3nnc4ccccc43)c(I)c(=O)[nH]2)cc(OC)c1
CC50 at 168 h [4]: 146 µM | selectivity ratio [5]: 12 | EC50 [6]: 12.2 µM | inhibition at 10 µM [1]: 59%

COc1ccc(Cc2nc(SCc3ccccc3[N+](=O)[O-])[nH]c(=O)c2I)cc1OC
inhibition at 10 µM [1]: 62%

Cc1ccc(OCCSc2nc(Cn3nnc4ccccc43)c(I)c(=O)[nH]2)cc1
inhibition at 10 µM [1]: 35%

O=c1[nH]c(SCCOc2ccc([N+](=O)[O-])cc2)nc(Cc2cc(F)cc(F)c2)c1I
inhibition at 10 µM [1]: 9%

COc1cc(CSc2nc(Cc3ccc(OC)c(OC)c3)c(I)c(=O)[nH]2)cc(OC)c1
inhibition at 10 µM [1]: 41%

COc1ccc(Cc2nc(SCCOc3ccc(C)cc3)[nH]c(=O)c2I)cc1OC
inhibition at 10 µM [1]: 49%

N#Cc1ccc(CSc2nc(Cn3nnc4ccccc43)c(I)c(=O)[nH]2)cc1
inhibition at 10 µM [1]: 27%

Cc1cc(C)cc(Cc2nc(SCc3ccc([N+](=O)[O-])cc3)[nH]c(=O)c2I)c1
inhibition at 10 µM [1]: 25%

COc1ccc(Cc2nc(SCc3ccc(I)cc3)[nH]c(=O)c2I)cc1OC
inhibition at 10 µM [1]: 17%

N#Cc1ccc(CSc2nc(Cc3cc(F)cc(F)c3)c(I)c(=O)[nH]2)cc1
inhibition at 10 µM [1]: 14%

COc1ccc(Cc2nc(SCc3ccc([N+](=O)[O-])cc3)[nH]c(=O)c2I)cc1OC
Activity [2]: Dose-dependent effect | Activity [3]: Active | CC50 at 168 h [4]: 124 µM | selectivity ratio [5]: 330 | EC50 [6]: 0.376 µM | Activity [7]: inactive | Activity [8]: Active | Activity [9]: Active | inhibition at 10 µM [1]: 81%

Nc1ccn([C@H]2CS[C@@H](CO)O2)c(=O)n1
CC50 at 168 h [4]: > 100 µM | selectivity ratio [5]: > 137 | EC50 [6]: 0.731 µM | inhibition at 10 µM [1]: 88%

COc1ccc(Cc2nc(SC3C=CCCC3)[nH]c(=O)c2I)cc1OC (configuration not stated)
inhibition at 10 µM [1]: 52%

COc1ccc(Cc2nc(SCc3ccc(C#N)cc3)[nH]c(=O)c2I)cc1OC
CC50 at 168 h [4]: 92 µM | selectivity ratio [5]: 19 | EC50 [6]: 4.84 µM | inhibition at 10 µM [1]: 67%

O=c1[nH]c(SCc2ccc(I)cc2)nc(Cn2nnc3ccccc32)c1I
inhibition at 10 µM [1]: 34%

COc1ccc(Cc2nc(SCc3ccc(C(F)(F)F)cc3)[nH]c(=O)c2I)cc1OC
inhibition at 10 µM [1]: 54%

— ChEMBL document CHEMBL3758143, “5-Iodo-2-arylalkylthio-6-aryl pyrimidin-4(3H)-ones as non-nucleoside anti-HBV agents” (Medchemcomm, 2015)
